# Tests used:
# Test in all cases: Antibiotics sensitivity, agar dilution MIC
# Assay type in all cases: cell-based
# [1] = system: Bifidobacterium adolescentis KCTC3352; conditions: strain KCTC3352; Table 5
# Method: (§1) Antibiotics sensitivity test was performed for comparative analysis of phenotypes of the lactobacillus strain separated in Example 1 and standard strains purchased from KCTC. In order to find out the minimum inhibitory concentrations (MICs) of 18 kinds of antibiotics (ampicillin, mupirocin, amoxicillin/clavulanic acid, oxacillin, cefonicid, cefazolin, ceftazidime, cefotaxime, ceftriaxone, tigecyclin, streptomycin, vancomycin, teicoplanin, daptomycin, linezolid, clindamycin, quinupristin/dalfopristin and tobramycin), agar dilution method was performed according to the Clinical and Laboratory Standards Institute (CLSI, 2003), and the results were listed in Tables 4 and 5.
# [2] = system: Bifidobacterium adolescentis SPM0212; conditions: strain SPM0212; Table 5
# Method: as §1
# [3] = system: Bifidobacterium adolescentis SPM0214; conditions: strain SPM0214; Table 5
# Method: as §1
# [4] = system: Bifidobacterium adolescentis SPM0308; conditions: strain SPM0308; Table 5
# Method: as §1
# [5] = system: Bifidobacterium adolescentis SPM1005; conditions: strain SPM1005; Table 5
# Method: as §1
# [6] = system: Bifidobacterium adolescentis SPM1307-A; conditions: strain SPM1307-A; Table 5
# Method: as §1
# [7] = system: Bifidobacterium adolescentis SPM1601; conditions: strain SPM1601; Table 5
# Method: as §1
# [8] = system: Bifidobacterium adolescentis SPM1604; conditions: strain SPM1604; Table 5
# Method: as §1
# [9] = system: Bifidobacterium adolescentis SPM1605; conditions: strain SPM1605; Table 5
# Method: as §1
# [10] = system: Bifidobacterium adolescentis SPM1606; conditions: strain SPM1606; Table 5
# Method: as §1
# [11] = system: Bifidobacterium adolescentis SPM1608; conditions: strain SPM1608; Table 5
# Method: as §1
# [12] = system: Bifidobacterium longum KCTC3128; conditions: strain KCTC3128; Table 5
# Method: as §1
# [13] = system: Bifidobacterium longum SPM1205; conditions: strain SPM1205; Table 5
# Method: as §1
# [14] = system: Bifidobacterium longum SPM1206; conditions: strain SPM1206; Table 5
# Method: as §1
# [15] = system: Bifidobacterium pseudocatenulatum KCTC3223; conditions: strain KCTC3223; Table 5
# Method: as §1
# [16] = system: Bifidobacterium pseudocatenulatum SPM1204; conditions: strain SPM1204; Table 5
# Method: as §1
# [17] = system: Bifidobacterium pseudocatenulatum SPM1309; conditions: strain SPM1309; Table 5
# Method: as §1
# [18] = system: Bifidobacterium longum SPM1207; conditions: strain SPM1207; Table 5
# Method: as §1
Molecule,Minimum inhibitory concentrations (MICs) [1] [μl/Ml],Minimum inhibitory concentrations (MICs) [2],Minimum inhibitory concentrations (MICs) [3] [μl/Ml],Minimum inhibitory concentrations (MICs) [4],Minimum inhibitory concentrations (MICs) [5] [μl/Ml],Minimum inhibitory concentrations (MICs) [6] [μl/Ml],Minimum inhibitory concentrations (MICs) [7] [μl/Ml],Minimum inhibitory concentrations (MICs) [8],Minimum inhibitory concentrations (MICs) [9] [μl/Ml],Minimum inhibitory concentrations (MICs) [10],Minimum inhibitory concentrations (MICs) [11],Minimum inhibitory concentrations (MICs) [12] [μl/Ml],Minimum inhibitory concentrations (MICs) [13],Minimum inhibitory concentrations (MICs) [14] [μl/Ml],Minimum inhibitory concentrations (MICs) [15] [μl/Ml],Minimum inhibitory concentrations (MICs) [16] [μl/Ml],Minimum inhibitory concentrations (MICs) [17] [μl/Ml],Minimum inhibitory concentrations (MICs) [18]
"CCC[C@@H]1C[C@@H](C(=O)N[C@@H]([C@H]2O[C@H](SC)[C@H](O)[C@@H](O)[C@H]2O)[C@H](C)Cl)N(C)C1 [CLI, clindamycin]",4,4 μl/Ml,32,32 μl/Ml,32,4,16,4 μl/Ml,4,4 μl/Ml,8 μl/Ml,4,4 μl/Ml,8,8,>128,8,
"CCCCCCCCCC(=O)N[C@@H](Cc1c[nH]c2ccccc12)C(=O)N[C@H](CC(N)=O)C(=O)N[C@@H](CC(=O)O)C(=O)N[C@@H]1C(=O)NCC(=O)N[C@@H](CCCN)C(=O)N[C@@H](CC(=O)O)C(=O)N[C@H](C)C(=O)N[C@@H](CC(=O)O)C(=O)NCC(=O)N[C@H](CO)C(=O)N[C@@H]([C@H](C)CC(=O)O)C(=O)N[C@@H](CC(=O)c2ccccc2N)C(=O)O[C@@H]1C [DAP, daptomycin]",16,4 μl/Ml,2,0.25 μl/Ml,1,8,4,4 μl/Ml,4,0.12 μl/Ml,8 μl/Ml,16,2 μl/Ml,4,16,2,4,
"CC(=O)NC[C@H]1CN(c2ccc(N3CCOCC3)c(F)c2)C(=O)O1 [LNZ, linezolid]",8,8 μl/Ml,0.25,2 μl/Ml,4,8,8,1 μl/Ml,4,2 μl/Ml,8 μl/Ml,8,2 μl/Ml,1,8,8,2,
"[H]/N=C(/N)N[C@H]1[C@H](O)[C@@H](O)[C@H](O[C@@H]2O[C@@H](C)[C@](O)(C=O)[C@H]2O[C@@H]2O[C@@H](CO)[C@H](O)[C@@H](O)[C@@H]2NC)[C@@H](N/C(N)=N\[H])[C@@H]1O [STR, streptomycin]",128,128 μl/Ml,32,32 μl/Ml,32,64,64,≦0.06 μl/Ml,32,0.25 μl/Ml,32 μl/Ml,128,8 μl/Ml,8,128,128,32,
"CN(C)c1cc(NC(=O)CNC(C)(C)C)c(O)c2c1C[C@H]1C[C@H]3[C@H](N(C)C)C(O)=C(C(N)=O)C(=O)[C@@]3(O)C(O)=C1C2=O [TIG, tigecyclin]",0.5,≦0.06 μl/Ml,0.25,≦0.06 μl/Ml,0.5,0.25,0.25,≦0.06 μl/Ml,0.5,0.12 μl/Ml,≦0.06 μl/Ml,0.5,≦0.06 μl/Ml,0.12,0.5,0.5,0.25,
"NC[C@H]1O[C@H](O[C@H]2[C@H](O)[C@@H](O[C@H]3O[C@H](CO)[C@@H](O)[C@H](N)[C@H]3O)[C@H](N)C[C@@H]2N)[C@H](N)C[C@@H]1O [TOB, tobramycin]",>128,>128 μl/Ml,32,32 μl/Ml,32,64,32,16 μl/Ml,16,16 μl/Ml,128 μl/Ml,>128,4 μl/Ml,32,>128,128,>128,
"CN[C@H](CC(C)C)C(=O)N[C@H]1C(=O)N[C@@H](CC(N)=O)C(=O)N[C@H]2C(=O)N[C@H]3C(=O)N[C@H](C(=O)N[C@H](C(=O)O)c4cc(O)cc(O)c4-c4cc3ccc4O)[C@H](O)c3ccc(c(Cl)c3)Oc3cc2cc(c3O[C@@H]2O[C@H](CO)[C@@H](O)[C@H](O)[C@H]2O[C@H]2C[C@](C)(N)[C@H](O)[C@H](C)O2)Oc2ccc(cc2Cl)[C@H]1O [VAN, vancomycin]",2,2 μl/Ml,2,2 μl/Ml,2,2,2,≦0.06 μl/Ml,2,≦0.06 μl/Ml,2 μl/Ml,4,2 μl/Ml,2,4,2,2,2 μl/Ml
teicoplanin [TEC],2,2 μl/Ml,2,2 μl/Ml,1,0.5,2,≦0.06 μl/Ml,1,≦0.06 μl/Ml,2 μl/Ml,2,0.5 μl/Ml,1,2,2,0.25,1

# From patent US20130259835A1, “BIFIDOBACTERIUM ADOLESCENTIS SPM0212 HAVING ANTIVIRAL ACTIVITY FOR HEPATITIS B VIRUS, AND PHARMACEUTICAL COMPOSITION FOR PREVENTING AND TREATING HEPATITIS B COMPRISING THEREOF” (SAHMYOOK UNIVERSITY INDUSTRY-ACADEMIC COOPERATION, priority 2011, published 2013)
